pEC50, pIC50: −log10 of the molar value. “Also recorded” adds a separate entry of the source. Where two headings read alike, the source gives them in different places.
How the values were obtained:
[1] = system: Jurkat cells; experiment: Conjugate-mediated uptake of IgG2a-Alexa488 into Jurkat cells; type: cell-based; conditions: for uptake into Jurkat cells (cell fluorescence vs conjugate concentration): DAR 9-11 per conjugate
Description: The anti-IgG2a conjugates were bound to IgG2a-Alexa488, as follows: equal molar ratios of anti-IgG2a and IgG2a-Alexa488 were added in tissue culture media for 30 minutes at room temperature. The resulting anti-IgG2a:IgG2a antibody-Alexa488 compositions were added to Jurkat cells (100 k cells/50 ul per well, n=2), and Alexa488 fluorescence levels were measured (via Alexa488 measurement) at 1 hour and 24 hours by flow cytometry. As the fluorescently labelled target (IgG2a antibody) accumulates in cells, the fluorescence presents a way to measure total intracellular uptake by cells over time.

[2] = biological target: CI-M6PR (Homo sapiens, UniProt P11717); experiment: Human CI-M6PR binding assay (ELISA); parameters: purchased R&D 6418-GR-050; conditions: for EC50: read-out: EC50 (nM) in M6PR binding assay
Description: Nunc black solid bottom MaxiSorp plates were allowed to incubate overnight at 4° C. coated with 1 μg/mL of recombinant human CI-M6PR protein (R&D, 6418-GR-050) in 50 μL PBS. The next day, coating was decanted and plates were washed 3× with PBS. Wells were blocked with 350 μL of 3% BSA-PBS for 1 hour at room temperature. […] 50 μL of diluted conjugates were added to the plate and allowed to incubate at room temperature for 2 hours. After incubation, solutions in plate were decanted and washed with 350 μL of 0.05% PBS-Tween20 three times, drying the plate each wash on a clean paper towel. 50 μL of peroxidase AffiniPure Mouse Anti-Human IgG (Jackson Immuno, 209-035-088) diluted in 3% BSA-PBS to […] was added to the plate and allowed to incubate for 1 hour at room temperature in the dark. After incubation, solutions in plate were decanted and washed with 350 μL of 0.05% PBS-Tween20 3 times, drying the plate each wash on a clean paper towel. […] 50 μL of QuantaBlu solution was added to wells and allowed to incubate for 5-10 minutes at room temperature. After incubation, plates were read on a Perkin Elmer EnVision using photometric 340 and Umbelliferone 460 filter sets for excitation and emission, respectively. Data analysis and non-linear curve-fitting was performed using GraphPad Prism.

[3] = system: Jurkat cells; experiment: Uptake of IgE-Alexa488 target by omalizumab conjugates in Jurkat cells; type: cell-based; conditions: 1 hour, FIGS. 15-17
Description: The omalizumab conjugates of Example 142 were bound to IgE-Alexa488 (prepared according to Example 144), as follows: equal molar ratios of omalizumab (anti-IgE) conjugate and IgE-Alexa488 were added in tissue culture media for 30 minutes at room temperature. The resulting anti-IgE conjugate:IgE antibody-Alexa488 compositions were added to Jurkat cells (100 k cells/50 ul per well, n=2), and Alexa488 fluorescence levels in the cells were measured at 1 hour by flow cytometry. As the fluorescently labelled target (IgE antibody) accumulates in cells, the fluorescence presents a way to measure total intracellular uptake by cells over time.

[4] = Serum pharmacokinetic analysis of rIgG1 (anti-IgG2a) antibody conjugates; type: in vivo, mice; conditions: intravenous 10 μg/mouse, serum 0.5-24 h, compared to Compound I-7 conjugate
Description: A pharmacokinetic analysis of the rIgG1 (anti-IgG2a) antibody conjugates described in the previous example was performed in mice. In particular, […] mice were intravenously administered each rIgG1 antibody conjugate at 10 μg/mouse (5 mice per group). Blood was collected at 0.5, 1, 2, 6, and 24 hours and serum rIgG1 was analyzed using an ELISA kit (Abcam) according to the manufacturer's instructions. Samples were run across 3 different plates with unconjugated rIgG1 controls (UNLB-anti-IgG2a rIgG1) included on all 3 plates. FIGS. 8A-8C show the serum levels of anti-IgG2a conjugated to Compound I-7 (dar8) and (dar4) (FIG. 8A), anti-IgG2a conjugated to Compound I-10 and anti-IgG2a conjugated to Compound I-11 (FIG. 8B), and anti-IgG2a conjugated to Compound I-9 and anti-IgG2a conjugated to Compound I-12 (FIG. 8C) over time.

[5] = biological target: T1, M6PR (Domains I-9, R&D Systems) (Homo sapiens, UniProt P11717); experiment: General M6PR binding assay (fluorescence polarization); conditions: Table 16F, unconjugated compounds, 100 nM M6PR, 1 nM probe, 2 hr incubation
T1 construct: with 100 nM M6PR (Domains I-9, R&D Systems) and 1 nM probe; purchased R&D Systems
Description: M6PR binding was measured in black 96-well plates using a fluorescence polarization assay. A fluorescent probe consisting of a reference M6Pn ligand linked to Cy5 was synthesized. Test compounds were resuspended in DMSO and 3-fold serial dilutions were made at 100× final concentrations. Binding reactions were conducted in 100 μl final volume in 20 mM HEPES (pH 7.5) 100 mM NaCl 0.015% Tween-20 1% DMSO with 100 nM M6PR (Domains I-9, R&D Systems) and 1 nM probe. Fluorescence polarization was measured using Xex=620 nm, λem=688 nm on an Envision plate reader (Perkin Elmer) after 2 hr incubation time. Dose responses were conducted in duplicate and normalized to the response with DMSO (high) and 1 μM reference compound (low) on each plate. IC50 values were determined by fitting to 4-parameter curves in GraphPad Prism.

[6] = Table 16E, conjugate, m average DAR 9.5, read-out: EC50 in M6PR binding assay for conjugates of monovalent compounds of varying linker length and loading
[7] = antibody conjugate, average loading DAR 9.5

CI-M6PR, sequence (P11717 41-1365 limits assumed): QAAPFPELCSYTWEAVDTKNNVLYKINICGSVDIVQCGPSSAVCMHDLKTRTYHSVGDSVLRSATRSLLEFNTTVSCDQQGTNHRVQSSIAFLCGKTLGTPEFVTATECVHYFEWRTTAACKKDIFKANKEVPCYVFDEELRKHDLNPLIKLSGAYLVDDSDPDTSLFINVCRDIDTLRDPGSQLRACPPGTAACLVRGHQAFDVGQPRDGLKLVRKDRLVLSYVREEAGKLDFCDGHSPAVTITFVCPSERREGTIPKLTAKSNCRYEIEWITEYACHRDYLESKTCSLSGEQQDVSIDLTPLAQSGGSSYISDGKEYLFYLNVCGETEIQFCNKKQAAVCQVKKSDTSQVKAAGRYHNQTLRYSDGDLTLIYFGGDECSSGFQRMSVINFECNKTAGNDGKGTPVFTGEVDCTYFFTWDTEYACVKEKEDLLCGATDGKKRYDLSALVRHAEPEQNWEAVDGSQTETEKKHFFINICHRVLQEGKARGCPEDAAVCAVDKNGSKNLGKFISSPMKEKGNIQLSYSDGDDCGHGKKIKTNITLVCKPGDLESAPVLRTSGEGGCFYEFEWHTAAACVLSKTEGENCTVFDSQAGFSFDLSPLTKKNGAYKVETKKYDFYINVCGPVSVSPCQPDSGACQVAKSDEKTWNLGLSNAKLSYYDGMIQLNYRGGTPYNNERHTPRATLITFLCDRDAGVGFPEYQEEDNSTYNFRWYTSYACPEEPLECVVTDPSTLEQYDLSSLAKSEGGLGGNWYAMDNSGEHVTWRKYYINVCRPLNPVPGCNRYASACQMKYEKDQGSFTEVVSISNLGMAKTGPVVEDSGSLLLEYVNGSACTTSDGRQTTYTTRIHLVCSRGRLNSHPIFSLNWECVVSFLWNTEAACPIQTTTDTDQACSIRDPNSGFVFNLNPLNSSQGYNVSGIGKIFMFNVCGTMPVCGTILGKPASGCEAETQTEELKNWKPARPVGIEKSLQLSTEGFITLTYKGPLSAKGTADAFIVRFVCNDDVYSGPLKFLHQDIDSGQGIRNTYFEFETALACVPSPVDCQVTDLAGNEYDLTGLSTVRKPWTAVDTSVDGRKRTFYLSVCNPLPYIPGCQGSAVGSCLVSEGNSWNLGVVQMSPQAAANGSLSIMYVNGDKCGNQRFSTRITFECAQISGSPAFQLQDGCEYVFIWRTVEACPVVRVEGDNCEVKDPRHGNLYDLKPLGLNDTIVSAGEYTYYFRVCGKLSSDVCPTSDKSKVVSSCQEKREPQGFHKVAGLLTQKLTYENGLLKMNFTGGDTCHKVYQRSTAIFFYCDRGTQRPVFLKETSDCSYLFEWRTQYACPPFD
T1 sequence (P11717 41-1365 limits assumed): as above

**Q.** With `O=C(CCCCCc1cn(CCOCCOCCOCCOCCC(=O)Oc2c(F)c(F)c(F)c(F)c2F)nn1)Nc1ccc(O[C@H]2O[C@H](CCP(=O)(O)O)[C@@H](O)[C@H](O)[C@@H]2O)cc1` [513 (I-39)] as the molecule, how does the “uptake into Jurkat cells (cell fluorescence vs conjugate concentration)” value ([1]; one hour incubation, FIG. 12) read?
**A.** strong cell uptake

**Q.** And the EC50 ([2]; antibody conjugate, average loading DAR 9)?
**A.** 0.19 nM

**Q.** Which “uptake into Jurkat cells, average loading DAR9 versus DAR2” value ([1]; one hour incubation, FIG. 12) does the source give for `C[C@H](NC(=O)CCCn1cc(CCCCNC(=S)Nc2ccc(O[C@H]3O[C@H](CCP(=O)(O)O)[C@@H](O)[C@H](O)[C@@H]3O)cc2)nn1)C(=O)N[C@@H](C)C(=O)N[C@@H](C)C(=O)NCCOCCOCCOCCOCCC(=O)Oc1c(F)c(F)c(F)c(F)c1F` [528 (I-51)] here?
**A.** greater uptake

**Q.** And the “uptake into Jurkat cells (cell fluorescence vs conjugate concentration)” value ([1]; one hour incubation, FIG. 12)?
**A.** strong cell uptake

**Q.** And the pEC50 ([2]; EC50 in M6PR binding assay for conjugates of compounds of varying multivalency, Table 16D, conjugate, m average loading DAR 2)?
**A.** 8.65

**Q.** What about the pEC50 ([2]; EC50 in M6PR binding assay for conjugates of monovalent compounds of varying linker length and loading, Table 16E, conjugate, m average DAR 2) of the same molecule?
**A.** 8.65

**Q.** And the pEC50 ([2]; Table 16B, antibody conjugate, average loading DAR 8, read-out: EC50 in M6PR binding assay)?
**A.** 9.52

**Q.** What about the pEC50 ([2]; Table 16D, conjugate, m average loading DAR 9.5, read-out: EC50 in M6PR binding assay for conjugates of compounds of varying multivalency) of the same molecule?
**A.** 9.70

**Q.** And the pEC50 [2, 6]?
**A.** 9.70

**Q.** What about the EC50 [2, 7] of the same molecule?
**A.** 0.2 nM

**Q.** Which “relative cellular uptake activity of IgE-Alexa488, omalizumab conjugates of Table 15A” value [3] does the source give for `O=C(NCCCCc1cn(CCOCCOCCOCCOCCC(=O)Oc2c(F)c(F)c(F)c(F)c2F)nn1)Nc1ccc(O[C@H]2O[C@H](CCP(=O)(O)O)[C@@H](O)[C@H](O)[C@@H]2O)cc1` [529 (I-38)] here?
**A.** comparable activity to a thiourea Z^3 analog (520 (I-7) with m=4)

**Q.** And the “uptake into Jurkat cells (cell fluorescence vs conjugate concentration)” value ([1]; one hour incubation, FIG. 12)?
**A.** strong cell uptake

**Q.** And the pEC50 [2, 6]?
**A.** 9.72

**Q.** What about the EC50 [2, 7] of the same molecule?
**A.** 0.19 nM

**Q.** What does the source list for `O=C(CCN1C(=O)C=CC1=O)NCCOCCOCCOCCn1cc(CCO[C@H]2O[C@H](CCP(=O)(O)O)[C@@H](O)[C@H](O)[C@@H]2O)nn1` [Compound I-10]?
**A.** half-life in mice [4]: longer half-life; intracellular uptake of IgG2a-Alexa488 into Jurkat cells ([1]; anti-IgG2a conjugates, 1 h and 24 h (FIGS. 9-10)): sufficiently robust uptake; binding affinity to M6PR compared to Compound I-7 ([2]; conjugates of ligand linkers): weaker binding affinity to M6PR compared to Compound I-7; also recorded: weaker binding affinity to M6PR than Compound I-7

**Q.** With `C#CCCCCCOC[C@H]1O[C@H](OC)[C@@H](O[C@H]2O[C@H](CCP(=O)(O)O)[C@@H](O)[C@H](O)[C@@H]2O)[C@@H](O)[C@@H]1O` [Compound I-108, (2-((2R,3S,4S,5S,6R)-6-(((2S,3S,4S,5S,6R)-6-((hept-6-yn-1-yloxy)methyl)-4,5-dihydroxy-2-methoxytetrahydro-2H-pyran-3-yl)oxy)-3,4,5-trihydroxytetrahydro-2H-pyran-2-yl)ethyl)phosphonic acid] as the molecule, how does the pIC50 [5] read?
**A.** ≤ 6.30

**Q.** With `O=C(NCCCCc1cn(-c2cccnc2)nn1)Nc1ccc(C[C@H]2O[C@H](CCP(=O)(O)O)[C@@H](O)[C@H](O)[C@@H]2O)cc1` [Compound P5] as the molecule, how does the pIC50 [5] read?
**A.** 6.30 to 7.00
